# Measured values from PMC11053489 (Viruses, 2024).
# Where a name gives a salt, the structure may show the parent alone. Read-outs that look alike come from different tables or passages of the source.
# Experiments:
# [1] = tested on: SARS-CoV-2 (hCoV-19/USA-WA1/2020) in Vero CCL-81 cells; test: microbe, parasite or virus in culture; assay type: cell-based; conditions: for anti-SARS-CoV-2 activity (in words), concentrations up to 100 μM: Vero CCL-81 cells
# [2] = cited from earlier work; for Fun: Table 3, 1 – fraction bound reported in the literature, ref column Refs of Table 3
# [3] = MTS cytotoxicity assay, Vero CCL-81 cells; conditions: African green monkey
# [4] = Peak plasma concentration; conditions: human, in vivo
# [5] = in vitro; conditions: African green monkey
# [6] = tested on: SARS-CoV-2 (hCoV-19/USA-WA1/2020) in Calu-3 cells; test: microbe, parasite or virus in culture; assay type: cell-based; conditions: for EC50 / EC90: Severe acute respiratory syndrome coronavirus 2, Calu-3, MOI 0.01, 72 h, 2% FBS; for EC50: read-out: Calu-3 SARS-CoV-2 EC50; for EC90: read-out: Calu-3 SARS-CoV-2 EC90; for anti-SARS-CoV-2 activity in Calu-3 cells (in words): tested up to 100 μM
# [7] = tested on: SARS-CoV-2 (hCoV-19/USA-WA1/2020) in Caco-2 cells
# [8] = human, in vivo
# [9] = tested on: SARS-CoV-2 (hCoV-19/USA-WA1/2020) in Caco-2 cells; test: microbe, parasite or virus in culture; conditions: Severe acute respiratory syndrome coronavirus 2, Caco-2, 72 h; for EC50: read-out: Caco-2 SARS-CoV-2 EC50; for EC90: read-out: Caco-2 SARS-CoV-2 EC90
# [10] = MTS cytotoxicity assay, PBM cells; conditions: human
# [11] = MTS cytotoxicity assay, CEM cells; conditions: human
# [12] = MTS cytotoxicity assay, Huh-7 cells; conditions: human
# [13] = MTS cytotoxicity assay, Calu-3 cells; conditions: human
# [14] = MTS cytotoxicity assay, Caco-2 cells; conditions: human
# [15] = in vitro; conditions: human
# [16] = in vitro; conditions: human, Caco-2
# [17] = in vitro; conditions: human; remark: listed apart in the source
# [18] = tested on: CCRF-CEM cells; conditions: human, 4 days
# [19] = tested on: Huh-7 cells; conditions: human, 4 days
# [20] = Severe acute respiratory syndrome coronavirus 2, Table 3, drugs tested only in Vero CCL-81, MOI 0.1, 48 h, read-out: Vero CCL-81 Cells EC50
# [21] = Severe acute respiratory syndrome coronavirus 2, Table 3, drugs tested only in Vero CCL-81, MOI 0.1, 48 h, read-out: Vero CCL-81 Cells EC90
# [22] = Severe acute respiratory syndrome coronavirus 2, Table 1 drugs, MOI 0.1, 48 h, 2% FBS, read-out: Vero CCL-81 SARS-CoV-2 EC50
# [23] = Severe acute respiratory syndrome coronavirus 2, Table 1 drugs, MOI 0.1, 48 h, 2% FBS, read-out: Vero CCL-81 SARS-CoV-2 EC90
# [24] = NAs and nucleoside-base precursors, evaluated up to 20 μM
structure (smiles),measurement,setting,value
C[C@H]1c2cccc(O)c2C(=O)C2=C(O)[C@]3(O)C(=O)C(C(N)=O)=C(O)[C@@H](N(C)C)[C@@H]3[C@@H](O)[C@@H]21 [Doxycycline],EC50,[1]; [20],69.3 µM
same,EC90,[1]; [21],102 µM
same,Fun,[2],0.15
same,CC50 at 3 days,[3],≥ 100 µM
same,Cmax (μM) {unbound},[4],0.55 µM
O=C1O[C@H]([C@@H](O)CO)C(O)=C1O [L-ascorbic acid],"anti-SARS-CoV-2 activity (in words), concentrations up to 100 μM",[1],inactive
CC(C)OC(=O)[C@H](C)N[P@](=O)(CO[C@H](C)Cn1cnc2c(N)ncnc21)Oc1ccccc1 [tenofovir alafenamide],antiviral activity in Vero CCL-81 cells (in words),[1],lack of antiviral activity
CCCCCc1cc(O)c2c(c1)OC(C)(C)c1ccc(C)cc1-2 [Cannabinol],EC50,"[1]; Severe acute respiratory syndrome coronavirus 2, 48 h, read-out: Vero CCL-81 Cells EC50",2.7 µM
same,EC90,"[1]; Severe acute respiratory syndrome coronavirus 2, 48 h, read-out: Vero CCL-81 Cells EC90",8.7 µM
same,CC50,[5],37.3 µM
same,Fun,[2],0.1
c1cc(CN2CCCNCCNCCCNCC2)ccc1CN1CCCNCCNCCCNCC1 [plerixafor],"anti-SARS-CoV-2 activity (in words), concentrations up to 100 μM",[1],inactive
"CC(C)C(=O)OC[C@H]1O[C@@H](n2ccc(NO)nc2=O)[C@H](O)[C@@H]1O [Molnupiravir (NHC), Molnupiravir]",EC50,[6],0.4 µM
same,EC90,[6],1.8 µM
same,EC50,[1]; [22],0.6 µM
same,EC90,[1]; [23],1.4 µM
same,Caco-2 Unbound Cmax/EC50,[7]; Caco-2,5.3
same,Cmax (μM) {unbound},[8],7.10 µM
same,Fun (unbound fraction of drug in plasma),[2]; plasma,1
same,EC50,[9],1.7 µM
same,EC90,[9],12.2 µM
CC(C)OC(=O)OCOP(=O)(CO[C@H](C)Cn1cnc2c(N)ncnc21)OCOC(=O)OC(C)C [tenofovir disoproxil fumarate],antiviral activity in Vero CCL-81 cells (in words),[1]; [24],lack of antiviral activity
CN(C)CCC(c1ccc(Cl)cc1)c1ccccn1 (stereo not shown) [Chlorpheniramine maleate],EC50,[1]; [20],31 µM
same,EC90,[1]; [21],104 µM
same,Fun,[2],0.28
same,CC50 at 3 days,[3],> 100 µM
same,Cmax (μM) {unbound},[4],0.008 µM
Nc1ccn([C@@H]2CS[C@H](CO)O2)c(=O)n1 [lamivudine],antiviral activity in Vero CCL-81 cells (in words),[1]; [24],lack of antiviral activity
COc1ccc2[nH]cc(CCNC(C)=O)c2c1 [Melatonin],EC50,[1]; [20],22 µM
same,Fun,[2],0.22
same,CC50 at 3 days,[3],> 100 µM
same,Cmax (μM) {unbound},[4],0.005 µM
Cc1ccc(-c2cc(C(F)(F)F)nn2-c2ccc(S(N)(=O)=O)cc2)cc1 [Celecoxib],EC50,[6],3 µM
same,EC90,[6],6.3 µM
same,EC50,[1]; [22],7.2 µM
same,EC90,[1]; [23],14.6 µM
same,Caco-2 Unbound Cmax/EC50,[7]; Cmax × Fun/EC50,0.08
same,CC50 at 5 days,[10],> 100 µM
same,CC50 at 4 days,[11],77.1 µM
same,CC50 at 4 days,[12],31.1 µM
same,CC50 at 3 days,[13],70.5 µM
same,CC50 at 3 days,[14],59.1 µM
same,EC50,[9],0.7 µM
same,EC90,[9],1.2 µM
same,CC50 at 3 days,[3],50 µM
same,Cmax (μM) {unbound},[4],0.056 µM
CC(C)(O)c1ccccc1CC[C@@H](SCC1(CC(=O)O)CC1)c1cccc(/C=C/c2ccc3ccc(Cl)cc3n2)c1 [Montelukast sodium],Cmax (μM) {unbound},[4],0.009 µM
O=C(O)COCCN1CCN(C(c2ccccc2)c2ccc(Cl)cc2)CC1 (stereo not shown) [cetirizine],"anti-SARS-CoV-2 activity (in words), concentrations up to 100 μM",[1],inactive
CC(C)OC(=O)[C@H](C)N[P@](=O)(OC[C@H]1O[C@@H](n2ccc(=O)[nH]c2=O)[C@](C)(F)[C@@H]1O)Oc1ccccc1 [sofosbuvir],antiviral activity in Vero CCL-81 cells (in words),[1],lack of antiviral activity
CC(C)/N=c1\cc2n(-c3ccc(Cl)cc3)c3ccccc3nc-2cc1Nc1ccc(Cl)cc1 [Clofazimine],EC50,[1]; [20],0.5 µM
same,EC90,[1]; [21],3 µM
same,CC50 at 3 days,[5],34.3 µM
same,Fun,[2],0.001
same,Cmax (μM) {unbound},[4],0.002 µM
CC(C)OC(=O)C(C)(C)Oc1ccc(C(=O)c2ccc(Cl)cc2)cc1 [Fenofibrate],anti-SARS-CoV-2 activity in Calu-3 cells (in words),[6],inactive
same,anti-SARS-CoV-2 activity in Caco-2 cells (in words),[7]; tested up to 100 μM,inactive
same,CC50 at 5 days,[10],38.9 µM
same,CC50 at 4 days,"[11]; CEM CC50, 4 days",28.5 µM
same,CC50 at 4 days,[12],> 100 µM
same,CC50 at 3 days,[13],≥ 100 µM
same,CC50 at 3 days,[14],> 100 µM
same,CC50 at 3 days,[3],> 100 µM
same,Cmax (μM) {unbound},[4],0.28 µM
NC(N)=Nc1nc(CSCCC(N)=NS(N)(=O)=O)cs1 [Famotidine],EC50,[1]; [20],160 µM
same,Fun,[2],0.8
same,CC50 at 3 days,[3],> 100 µM
same,Cmax (μM) {unbound},[4],0.16 µM
CC(=O)Oc1ccccc1C(=O)Nc1ncc([N+](=O)[O-])s1 [Nitazoxanide],EC50,[6],22.8 µM
same,EC90,[6],42.9 µM
same,EC50,[1]; [22],1.4 µM
same,EC90,[1]; [23],3.9 µM
same,Caco-2 Unbound Cmax/EC50,[7]; Caco-2,0.078
same,Cmax (μM) {unbound},[8],0.014 µM
same,CC50 at 3 days,[15],49.8 µM
same,CC50 at 3 days,[16],7.2 µM
same,CC50 at 3 days,[5],8.7 µM
same,CC50 at 5 days,[17],8.3 µM
same,Fun (unbound fraction of drug in plasma),"[2]; Table 1, ref column Refs of Table 1",0.01
same,EC50,[9],4.4 µM
same,EC90,[9],11.1 µM
NC(=O)c1ncn([C@@H]2O[C@H](CO)[C@@H](O)[C@H]2O)n1 [ribavirin],antiviral activity in Vero CCL-81 cells (in words),[1]; [24],lack of antiviral activity
CC(C)C(=O)OC[C@H]1O[C@@](C#N)(c2ccc3c(N)ncnn23)[C@H](O)[C@@H]1O [Obeldesivir],Caco-2 Unbound Cmax/EC50,[7]; Caco-2,72
same,Cmax (μM) {unbound},[8],5.79 µM
CC#CC(=O)N1CCC[C@H]1c1nc(-c2ccc(C(=O)Nc3ccccn3)cc2)c2c(N)nccn12 [Acalabrutinib],EC50,[1]; [20],11.1 µM
same,EC90,[1]; [21],70.9 µM
same,Cmax (μM) {unbound},[8],0.017 µM
same,CC50 at 3 days,[5],> 100 µM
COC(=O)N[C@H](C(=O)N1CCC[C@H]1c1nc(-c2ccc3c(c2)O[C@@H](c2ccccc2)n2c-3cc3cc(-c4c[nH]c([C@@H]5CCCN5C(=O)[C@@H](NC(=O)OC)C(C)C)n4)ccc32)c[nH]1)C(C)C [Elbasivir],EC50,[1]; [20],3.4 µM
same,EC90,[1]; [21],12.5 µM
same,Cmax (μM) {unbound},[8],0.003 µM
same,CC50 at 3 days,[5],> 100 µM
COC[C@H]1C[C@@H](c2ncc(-c3ccc4c(c3)COc3cc5c(ccc6nc([C@@H]7CC[C@H](C)N7C(=O)[C@@H](NC(=O)OC)C(C)C)[nH]c65)cc3-4)[nH]2)N(C(=O)[C@H](NC(=O)OC)c2ccccc2)C1 [Velpatasvir],EC50,[1]; [20],19.1 µM
same,EC90,[1]; [21],79.6 µM
same,Cmax (μM) {unbound},[8],0.001 µM
same,CC50 at 3 days,[5],> 100 µM
Cc1cccc(/C=N/Nc2cc(N3CCOCC3)nc(OCCc3ccccn3)n2)c1 [Apilimod mesylate],EC50,[6],> 100 µM
same,anti-SARS-CoV-2 activity in Calu-3 cells (in words),[6],inactive
same,EC50,[1]; [22],0.7 µM
same,EC90,[1]; [23],7.4 µM
same,Caco-2 Unbound Cmax/EC50,[7]; Caco-2,0.0005
same,CEM CC50 {Unbound},[18],62.2 µM
same,Huh7 CC50 {Unbound},[19],54.8 µM
same,Cmax (μM) {unbound},[8],0.043 µM
same,CC50 at 3 days,[15],> 100 µM
same,CC50 at 3 days,[16],> 100 µM
same,CC50 at 3 days,[5],> 100 µM
same,CC50 at 5 days,[17],> 100 µM
same,EC50,[9],85 µM
same,EC90,[9],> 100 µM
CC(C)C(=O)OCC(=O)[C@@]12O[C@H](C3CCCCC3)O[C@@H]1C[C@H]1[C@@H]3CCC4=CC(=O)C=C[C@]4(C)[C@H]3[C@@H](O)C[C@@]12C [Ciclesonide],EC50,[1]; [20],4.1 µM
same,EC90,[1]; [21],7.8 µM
same,Cmax (μM) {unbound},[8],0.0000/1 μM
same,CC50 at 3 days,[5],33.9 µM
Nc1nc(=O)n([C@@H]2CS[C@H](CO)O2)cc1F [emtricitabine],antiviral activity in Vero CCL-81 cells (in words),[1]; [24],lack of antiviral activity
CN1CC[C@H](c2c(O)cc(O)c3c(=O)cc(-c4ccccc4Cl)oc23)[C@H](O)C1 [Flavopiridol],EC50,[1]; [20],0.1 µM
same,EC90,[1]; [21],1.1 µM
same,Fun,[2],0.05
same,CC50 at 3 days,[3],0.031 µM
same,Cmax (μM) {unbound},[4],0.096 µM
CN(Cc1cc(Br)cc(Br)c1N)C1CCCCC1 [Bromhexine],EC50,[1]; [20],0.8 µM
same,EC90,[1]; [21],6.2 µM
same,Cmax (μM) {unbound},[8],0.005 µM
same,CC50 at 3 days,[5],> 100 µM
O=C(O)Cc1ccccc1Nc1c(Cl)cccc1Cl [Diclofenac sodium],EC50,[1]; [20],97.6 µM
same,EC90,[1]; [21],141 µM
same,CC50 at 3 days,[3],> 100 µM
same,Cmax (μM) {unbound},[4],0.012 µM
C[C@@H]1C[C@H]2[C@@H]3CCC4=CC(=O)C=C[C@]4(C)[C@@]3(F)[C@@H](O)C[C@]2(C)[C@@]1(O)C(=O)CO [dexamethasone],"anti-SARS-CoV-2 activity (in words), concentrations up to 100 μM",[1],inactive
NC12CC3CC(CC(C3)C1)C2 [Amantadine],CC50 at 3 days,[3],> 100 µM
same,Cmax (μM) {unbound},[4],0.002 µM
